Source: patent publication US10717766B2, “Antimicrobial peptides and uses thereof” (TECHNION RESEARCH & DEVELOPMENT FOUNDATION LIMITED, priority 2016, dated 2020)
Like-named read-outs stand apart in the source and are kept apart here.

Experiments:
[1] = test system: Staphylococcus hominis; assay: growth of Staphylococcus hominis after treatment with 0.5 mM peptide; format: cell-based; conditions: 24 hours, 37° C. under agitation, FIG. 6
Description: (§1) Extended fragments of the LFKFFK (SEQ ID NO: 1) sequence were derived from Staphylococcus aureus (PSMα3 derivatives) in order to determine the minimum peptide length critical for the antibacterial activity. […] Therefore, the antibacterial activity of its fragments comprising SEQ ID NO: 1, as listed in Table 1, were examined on the growth of Staphylococcus epidermidis ATCC 12228 cells, Staphylococcus hominis, and Lactobacillus casei after 24 hours from treatment with 0.5 mM peptide at 37° C. under agitation compared to control (bacterial growth w/o peptide). Lactobacillus casei are probiotic bacteria. Therefore, the peptides listed in Table 1 were also tested against bacteria of the human flora.

[2] = test system: Staphylococcus hominis; assay: minimal inhibition concentration (MIC) against Staphylococcus hominis; format: cell-based; conditions: O.D600 nm after 24 hours incubation at 37° C. with agitation, FIG. 4
Description: N-terminal acetylation of peptides is known to enhance fibril formation. Therefore, the bacterial growth of Staphylococcus hominis was tested by capped peptides of SEQ ID NO: 1 and 2. […] The lowest concentration at which no growth was observed is determined as the MIC. The experiment was performed in triplicates.

[3] = test system: Staphylococcus epidermidis ATCC 12228; assay: antibacterial activity (MIC) of fragments against Staphylococcus epidermidis ATCC 12228; format: cell-based; conditions: FIG. 5
Description: as §1

[4] = test system: Micrococcus luteus; assay: diameter of the growth inhibition of Micrococcus luteus cells; format: cell-based; conditions: for growth inhibition of Micrococcus luteus: FIG. 2A; for diameter of the growth inhibition of Micrococcus luteus: various concentrations
From the text: The anti-bacterial activity of LFKFFK peptide (SEQ ID NO: 1), KLFKFFK peptide (SEQ ID NO: 3) and control peptides with a hydrophobic/cationic amino-acid composition, IIKVIK (SEQ ID NO: 10) and IIKIIK (SEQ ID NO: 11), was examined by determining the diameter of the growth inhibition of Micrococcus luteus cells.

[5] = test system: bacteria; conditions: native full-length 22-residue peptide, cited from earlier work

Ac-KLFKFFK-NH2 (listed as Staphylococcus aureus) [compound 2]
antibacterial effect against S. hominis (growth compared to control w/o peptide) [1]: partially active
MIC [2]: 15

Ac-KLFKFFKD-NH2 (listed as Staphylococcus aureus) [compound 3]
antibacterial effect against S. hominis (growth compared to control w/o peptide) [1]: partially active

Ac-KLFKFFKDLL-NH2 (listed as Staphylococcus aureus) [compound 5]
anti-bacterial activity (MIC) against Staphylococcus epidermidis ATCC 12228 [3]: better anti-bacterial activity

Ac-KLFKFFKDLLG-NH2 (listed as Staphylococcus aureus) [compound 6]
anti-bacterial activity (MIC) against Staphylococcus epidermidis ATCC 12228 [3]: better anti-bacterial activity

Ac-LFKFFK-NH2 (listed as Staphylococcus aureus) [compound 1]
antibacterial effect against S. hominis (growth compared to control w/o peptide) [1]: partially active

Ac-VAKLFKFFKDLLGKFL-NH2 (listed as Staphylococcus aureus) [peptide 8]
anti-bacterial activity (MIC) against Staphylococcus epidermidis ATCC 12228 [3]: fails to exhibit any antibacterial activity

KLFKFFK (listed as Staphylococcus aureus)
growth inhibition of Micrococcus luteus [4]: inhibit the growth
toxicity to Micrococcus Luteus compared with LFKFFK ([4]; FIG. 2B): even more toxic
diameter of the growth inhibition of Micrococcus luteus ([4]; FIG. 2B): dose-dependent effect

LFKFFK (listed as Staphylococcus aureus) [fragment of PSMalpha3]
growth inhibition of Micrococcus luteus [4]: inhibit the growth
diameter of the growth inhibition of Micrococcus luteus ([4]; FIG. 2B): dose-dependent effect

MEFVAKLFKFFKDLLGKFLGNN [PSMalpha3]
antibacterial activity [5]: lacks antibacterial activity
antibacterial activity ([5]; listed as SEQ ID NO: 2): lack an antibacterial activity
